How the values were obtained:
lactoperoxidase (LPO) = lactoperoxidase (LPO) (Bos taurus, UniProt P80025); assay: iodide oxidation (HOI formation), absorbance […] nm, kinetic fit; type: biochemical; conditions: read-out: LPO^b
I = assay: purified protein; conditions: pH 6.0

Ki (lactoperoxidase (LPO)) [mM]	Compound	Km (I) [µM]
15 ± 5	Nc1nc(N)nc(N)n1 [melamine, 2,4,6-triamino-1,3,5-triazine]	–
–	lactoperoxidase (LPO) (Bos taurus)	2900 ± 400

— article PMC3407616, “Inhibition of Heme Peroxidases by Melamine” (Enzyme Research, 2012)
